According to patent US8273788B2, “Five-membered iminocyclitol derivatives as selective and potent glycosidase inhibitors: new structures for antivirals and osteoarthritis therapeutics” (Academia Sinica, Taiwan, priority 2005, dated 2012):
Where “and” joins values, the source holds several entries; their conditions need not be identical. Identical values can stand only once. Like-named read-outs stand apart in the source and are kept apart here.

Legend:
α-glucosidase = molecular target: T1, α-glucosidase (Saccharomyces cerevisiae, UniProt P53341); test: α-glucosidase inhibition assay (in situ screen, IC50, Ki); type: biochemical, baker's yeast; conditions: for α-glucosidase Inhibition (%): reaction product at 20 μM, in situ screening; for IC50: pure compound
T1 construct: purchased Sigma Co. (St. Louis, Mo.); host or cells: baker's yeast
T1 sequence (P53341 whole entry): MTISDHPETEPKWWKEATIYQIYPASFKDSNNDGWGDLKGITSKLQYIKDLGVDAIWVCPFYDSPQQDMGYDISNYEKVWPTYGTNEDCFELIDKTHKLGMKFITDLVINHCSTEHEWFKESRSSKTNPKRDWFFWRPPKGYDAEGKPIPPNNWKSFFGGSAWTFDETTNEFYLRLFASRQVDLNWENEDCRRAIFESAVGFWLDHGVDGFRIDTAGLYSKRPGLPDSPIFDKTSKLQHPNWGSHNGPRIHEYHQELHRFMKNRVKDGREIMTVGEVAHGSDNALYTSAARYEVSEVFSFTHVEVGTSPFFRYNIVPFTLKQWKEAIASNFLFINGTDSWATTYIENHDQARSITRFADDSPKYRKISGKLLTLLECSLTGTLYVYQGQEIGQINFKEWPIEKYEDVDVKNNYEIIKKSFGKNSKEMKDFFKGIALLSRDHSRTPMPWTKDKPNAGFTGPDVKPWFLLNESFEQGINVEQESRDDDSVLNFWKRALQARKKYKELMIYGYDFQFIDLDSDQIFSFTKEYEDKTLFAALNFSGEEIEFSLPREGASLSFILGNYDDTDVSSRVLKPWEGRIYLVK
Method: (§1) A mixture of iminocyclitol 4, a carboxylic acid (1 equiv, Scheme 2), diisopropyl ethylamine (DIEA, 2.2 equiv), and (1H-benzotriazole-1-yl)-1,1,3,3-tetramethyl-uronium hexafluorophosphate (HBTU, 1.1 equiv) in DMSO was shaken in 96-well microtiter plates for 5 h. Crude reaction products were randomly selected (30%) and analyzed by ESI-MS to ensure the presence of the desired products. The reaction mixture was diluted by appropriate buffer solutions and transferred to another 96-well microtiter plate for screening directly without any purification. […] Assuming the amide formation is complete, the percentage of inhibition relative to the control was calculated on the basis of absorbance at 405 nm for p-nitrophenol released from their corresponding substrates.
General procedure for coupling reactions and in situ screening. To a DMSO solution (10 μL) in each well of a 96-well microtiter plate was added each carboxylic acid (10 μL from a 10 mm stock solution in DMSO, 0.1 μmol), HBTU (10 μL from a 11 mm stock solution in DMSO, 1.1 equiv, 0.11 μmol), and DIEA (10 μL from a 22 mM stock solution in DMSO, 2.2 equiv, 0.22 μmol).
(§2) Enzyme assay. General procedure for the assay with various glycosidases. The initial velocities of the hydrolysis were measured spectrophotometrically at various concentrations of p-nitrophenyl-glycopyranoside (4 mM, 2 mM, 1 mM, 0.5 mM, 0.25 mM, 0.125 mM, 0.0625 mM) at 405 nm using Bio Assay Reader (Perkin Elmer HTS 7000 Plus) at 30° C. The obtained data were fitted into the Michaelis-Menten equation by using the Kaleida Graph program to determine the apparent Km values. […] The assays performed in wells of the microtiter plate contained either sodium phosphate buffer (50 mM, pH 7, for α- and β-glucosidase, α- and β-galactosidase, α- and β-mannosidase, α-fucosidase), or Mcllvaine's buffer (25 mM, pH 6, N-acetyl-β-hexosaminidase, jack bean).
(§3) The secondary plot was generated by plotting the apparent Km values as a function of inhibitor concentrations. Ki was calculated from the negative value of the x-intercept of this plot.

β-glucosidase = β-glucosidase inhibition assay (in situ screen, IC50, Ki); type: biochemical, almonds; conditions: for β-glucosidase Inhibition (%): reaction product at 20 μM, in situ screening; for IC50: pure compound; for Ki: value in brackets
Method: as §1, §2, §3

[1] = system: N-acetyl-β-hexosaminidase; test: N-acetyl-β-hexosaminidase inhibition assay (in situ screen, IC50, Ki); type: biochemical, jack bean; conditions: for N-acetyl-β-hexosaminidse Inhibition (%): reaction product at 30 μM, in situ screening; for IC50: pure compound, read-out: N-acetyl-β-hexosaminidse IC50
Method: as §1, §2, §3

[2] = system: Japanese encephalitis virus (JEV); test: Anti-JEV cell-based assay (plaque forming assay, BHK-21 cells)
[3] = system: dengue virus serotype 2 (DEN-2); test: Anti-DEN-2 cell-based assay (plaque forming assay, BHK-21 cells)
[4] = value in brackets, read-out: α-glucosidase (Ki)

SMILES | α-glucosidase Inhibition (%) (α-glucosidase) | β-glucosidase Inhibition (%) (β-glucosidase) | N-acetyl-β-hexosaminidse Inhibition (%) [1] [%] | IC50 (α-glucosidase) [µM] | IC50 (β-glucosidase) [µM] | IC50 [1] [µM] | also measured
O=C(CO)NC[C@H]1N[C@H](CO)[C@@H](O)[C@@H]1O [Compound 6] | 10 | 23 | 67 |  |  |  | 
CCCCC(CC)C(=O)NC[C@H]1N[C@H](CO)[C@@H](O)[C@@H]1O (some centres unmarked) [Compound 7] | 61 | 52 | 20 | 4 | 4.8 | 19 | inhibition of JEV infection ([2]; at 50 and 100 μM): no inhibition; inhibition of DEN-2 infection ([3]; at 50 and 100 μM): no inhibition
NC(Cn1ccc(=O)cc1)C(=O)NCC1NC(CO)C(O)C1O (centres unmarked) [Compound 9] | 27 | 37 | 53 |  |  |  | 
O=C(NC[C@H]1N[C@H](CO)[C@@H](O)[C@@H]1O)c1ccccc1 [Compound 10] | 16 | 12 | 13 |  |  |  | 
CN(C)c1ccc(C(=O)NC[C@H]2N[C@H](CO)[C@@H](O)[C@@H]2O)cc1 [Compound 11] | 41 | 55 | 6 |  |  |  | 
O=C(/C=C/c1cccc(C(F)(F)F)c1)NC[C@H]1N[C@H](CO)[C@@H](O)[C@@H]1O [Compound 12] | 19 | 49 | 8 |  |  |  | 
O=C(/C=C/c1cccc(Cl)c1)NC[C@H]1N[C@H](CO)[C@@H](O)[C@@H]1O [Compound 13] | 19 | 59 | 3 |  |  |  | 
CSc1ccccc1C(=O)NC[C@H]1N[C@H](CO)[C@@H](O)[C@@H]1O [Compound 14] | 51 | 7 | 54 |  |  |  | 
O=C(NC[C@H]1N[C@H](CO)[C@@H](O)[C@@H]1O)c1ccc2ccccc2c1 [Compound 15] | 45 | 28 | 31 | 100 | 58 | 44 | Ki (β-glucosidase): 30 µM
O=C(Cc1ccc2ccccc2c1)NC[C@H]1N[C@H](CO)[C@@H](O)[C@@H]1O [Compound 16] | 67 | 44 | 10 | 19 | 49 | 15 | 
O=C(Cc1cccc2ccccc12)NC[C@H]1N[C@H](CO)[C@@H](O)[C@@H]1O [Compound 17] | 94 | 45 | 45 | 0.28 | 92 |  | Ki (α-glucosidase; [4]): 0.077 µM; inhibition of JEV infection ([2]; at 50 and 100 μM): no inhibition; inhibition of DEN-2 infection ([3]; at 50 and 100 μM): no inhibition
COC(=O)c1ccc2[nH]c(C(=O)NC[C@H]3N[C@H](CO)[C@@H](O)[C@@H]3O)cc2c1 [Compound 18] | 36 | 53 | 23 | 120 | 10 | 42 | Ki (β-glucosidase): 6.2 µM
O=C(NC[C@H]1N[C@H](CO)[C@@H](O)[C@@H]1O)c1ccc2[nH]ccc2c1 [Compound 19] | 82 | 15 | 14 |  |  |  | 
O=C(Cc1c[nH]c2ccccc12)NC[C@H]1N[C@H](CO)[C@@H](O)[C@@H]1O [Compound 20] | 85 | 23 | 29 | 1.2 | 130 |  | Ki (α-glucosidase; [4]): 0.43 µM; inhibition of JEV infection ([2]; at 50 and 100 μM): no inhibition; inhibition of DEN-2 infection ([3]; at 50 and 100 μM): no inhibition
O=C(CCc1c[nH]c2ccccc12)NC[C@H]1N[C@H](CO)[C@@H](O)[C@@H]1O [Compound 21] | 83 | 20 | 27 | 11 | 75 | 3.2 | 
O=C(/C=C/c1c[nH]c2ccccc12)NC[C@H]1N[C@H](CO)[C@@H](O)[C@@H]1O [Compound 22] | 42 | 34 | 16 | 0.81 | 260 | 63 | inhibition of JEV infection ([2]; at 50 and 100 μM): no inhibition; inhibition of DEN-2 infection ([3]; at 50 and 100 μM): no inhibition
O=C(NC[C@H]1N[C@H](CO)[C@@H](O)[C@@H]1O)c1cn(Cc2ccccc2)c2ccccc12 [Compound 23] | 63 | 28 | 14 | 17 | 92 | 4.7 | 
O=C(NC[C@H]1N[C@H](CO)[C@@H](O)[C@@H]1O)C1Cc2ccccc21 (some centres unmarked) [Compound 24] | 93 | 45 | 9 | 0.15 | 92 | 11 | selectivity for α- over β-glucosidase (α-glucosidase): 600 fold; Ki (α-glucosidase; text b9, read-out: Ki, α-glucosidase): 0.053 µM; Ki (α-glucosidase; text b34, read-out: Ki against yeast α-glucosidase): 0.053 µM; Ki (α-glucosidase; [4]): 0.053 µM; increase in activity compared to parent core 4 (α-glucosidase; α-glucosidase): 100 fold; inhibition of JEV infection ([2]; at 50 and 100 μM): no inhibition; inhibition of DEN-2 infection ([3]; at 50 and 100 μM): no inhibition
O=C(NC[C@H]1N[C@H](CO)[C@@H](O)[C@@H]1O)c1ccc2c(c1)C(=O)c1ccccc1-2 [Compound 25] | 56 | 63 | 17 |  |  |  | 
O=C(/C=C/c1cccc(Br)c1)NC[C@H]1N[C@H](CO)[C@@H](O)[C@@H]1O [Compound 26] | 31 | 52 | 17 |  |  |  | 
Cc1ccc(/C=C/C(=O)NC[C@H]2N[C@H](CO)[C@@H](O)[C@@H]2O)cc1 [Compound 27] | 26 | 55 | 6 |  |  |  | 
COc1ccc(/C=C/C(=O)NC[C@H]2N[C@H](CO)[C@@H](O)[C@@H]2O)cc1OC(C)=O [Compound 28] | 27 |  | 52 | 250 | 2.4 |  | Ki (β-glucosidase): 1.24 µM and 1.2 µM
CN(C)c1ccc(/C=C/C(=O)NC[C@H]2N[C@H](CO)[C@@H](O)[C@@H]2O)cc1 [Compound 29] | 22 | 55 | 17 | 280 | 3.2 | 7.02 | Ki (β-glucosidase): 1.4 µM
CC(=O)OC[C@H]1N[C@H](CNC(=O)C2Cc3ccccc32)[C@@H](OC(C)=O)[C@@H]1OC(C)=O (some centres unmarked) [Compound 30] |  |  |  |  |  |  | inhibition of JEV infection ([2]; at 50 μM): no inhibition; inhibition of DEN-2 infection ([3]; at 50 μM): no inhibition
CCCCCCCCCN1C(CO)C(O)C(O)C1CNC(=O)C1Cc2ccccc21 (centres unmarked) [Compound 36] |  |  |  |  |  |  | IC50 ([2]; read-out: JEV IC50, M.O.I. = 0.1, virus production, BHK-21 cells): 11.3 ± 1.9 µM; IC90 ([2]; read-out: JEV IC90, M.O.I. = 0.1, virus production, BHK-21 cells): 17.5 ± 0.8 µM; IC50 ([3]; read-out: DEN IC50, M.O.I. = 0.1, virus production, BHK-21 cells): 11.8 ± 0.2 µM; IC90 ([3]; read-out: DEN IC90, M.O.I. = 0.1, virus production, BHK-21 cells): 18 ± 0.2 µM
